Measurements from article PMC4426345 (ACS Infectious Diseases, 2014).
In brackets after ≈: the same amount, converted by molar mass.

Legend:
[1] = tested on: M. tuberculosis H37Rv::pCHERRY3; type: cell-based, Mycobacterium tuberculosis; settings: OD and fluorescence readouts, 5 d, listed as Ambien, 1
[2] = tested on: replicating Mtb H37Rv; type: cell-based; settings: Mycobacterium tuberculosis, read-out: MIC in MABA

Structure (SMILES): Cc1ccc(-c2nc3ccc(C)cn3c2CC(=O)N(C)C)cc1 [Compound 1, N,N-dimethyl-2-(6-methyl-2-p-tolyl-imidazo[1,2-a]pyridin-3-yl)acetamide]
- MIC Mtb H37Rv 7H9-Tw-OADC [1]: 10 µM (≈ 3.07 µg/mL)
- MIC [2]: 49 to 53 µM (≈ 15.1 to 16.3 µg/mL)
